Laboratory results published in the NIST ThermoML archive (doi:10.1016/j.jct.2016.07.005).

Assay: xn = mol fraction of the nth substance listed
Conditions: 100 kPa, Liquid; for viscosity: Concentric cylinders viscometry; for mass density: Vibrating tube method

CN1CCC[C@H]1c1cccnc1 [(-)-3-(N-methylpyrrolidino)pyridine] + CCCCO
Conditions	mass density [kg/m3]	viscosity [mPa·s]
293.15 K, x1 = 0.1	845.043	3.049
293.15 K, x1 = 0.196	874.098	3.209
293.15 K, x1 = 0.3	901.216	3.408
293.15 K, x1 = 0.3931	922.268	3.601
293.15 K, x1 = 0.5	943.285	3.829
293.15 K, x1 = 0.593	960.358	4.027
293.15 K, x1 = 0.7	975.308	4.242
293.15 K, x1 = 0.7931	987.593	4.412
293.15 K, x1 = 0.9	1000.01	4.578
293.15 K, x1 = 1	1010.23	4.694
298.15 K, x1 = 0.1	841.123	2.692
298.15 K, x1 = 0.196	870.112	2.833
298.15 K, x1 = 0.3	897.182	2.999
298.15 K, x1 = 0.3931	918.206	3.155
298.15 K, x1 = 0.5	939.205	3.337
298.15 K, x1 = 0.593	956.271	3.494
298.15 K, x1 = 0.7	971.222	3.666
298.15 K, x1 = 0.7931	983.509	3.803
298.15 K, x1 = 0.9	995.934	3.942
298.15 K, x1 = 1	1006.16	4.048
303.15 K, x1 = 0.1	837.185	2.374
303.15 K, x1 = 0.196	866.114	2.498
303.15 K, x1 = 0.3	893.14	2.642
303.15 K, x1 = 0.3931	914.139	2.776
303.15 K, x1 = 0.5	935.124	2.931
303.15 K, x1 = 0.593	952.186	3.062
303.15 K, x1 = 0.7	967.138	3.205
303.15 K, x1 = 0.7931	979.432	3.319
303.15 K, x1 = 0.9	991.866	3.433
303.15 K, x1 = 1	1002.1	3.518
308.15 K, x1 = 0.1	833.229	2.105
308.15 K, x1 = 0.196	862.102	2.219
308.15 K, x1 = 0.3	889.089	2.346
308.15 K, x1 = 0.3931	910.068	2.461
308.15 K, x1 = 0.5	931.041	2.592
308.15 K, x1 = 0.593	948.102	2.702
308.15 K, x1 = 0.7	963.059	2.821
308.15 K, x1 = 0.7931	975.36	2.917
308.15 K, x1 = 0.9	987.806	3.013
308.15 K, x1 = 1	998.055	3.088
313.15 K, x1 = 0.1	829.249	1.885
313.15 K, x1 = 0.196	858.073	1.99
313.15 K, x1 = 0.3	885.026	2.103
313.15 K, x1 = 0.3931	905.989	2.203
313.15 K, x1 = 0.5	926.955	2.316
313.15 K, x1 = 0.593	944.017	2.41
313.15 K, x1 = 0.7	958.981	2.514
313.15 K, x1 = 0.7931	971.292	2.598
313.15 K, x1 = 0.9	983.751	2.686
313.15 K, x1 = 1	994.014	2.758
318.15 K, x1 = 0.1	825.24	1.683
318.15 K, x1 = 0.196	854.022	1.777
318.15 K, x1 = 0.3	880.948	1.88
318.15 K, x1 = 0.3931	901.899	1.97
318.15 K, x1 = 0.5	922.862	2.07
318.15 K, x1 = 0.593	939.982	2.152
318.15 K, x1 = 0.7	954.903	2.239
318.15 K, x1 = 0.7931	967.226	2.304
318.15 K, x1 = 0.9	979.704	2.367
318.15 K, x1 = 1	989.984	2.411
323.15 K, x1 = 0.1	821.198	1.495
323.15 K, x1 = 0.196	849.946	1.603
323.15 K, x1 = 0.3	876.851	1.708
323.15 K, x1 = 0.3931	897.795	1.793
323.15 K, x1 = 0.5	918.759	1.882
323.15 K, x1 = 0.593	935.834	1.952
323.15 K, x1 = 0.7	950.822	2.025
323.15 K, x1 = 0.7931	963.162	2.083
323.15 K, x1 = 0.9	975.66	2.143
323.15 K, x1 = 1	985.962	2.195
